Results reported in US20200131669A1, “CYCLIC PEPTIDE COMPOUND HAVING HIGH MEMBRANE PERMEABILITY, AND LIBRARY CONTAINING SAME” (Chugai Seiyaku Kabushiki Kaisha, priority 2017, published 2020).
Where two headings read alike, the source gives them in different places. Starred links: 1 amine or outer side, 2 acyl side, 3 side chain; linkers in the order of their positions; H or OH if unused. Positions of bridges follow the written chain, without caps; N, C: chain ends. Non-standard residues stand in square brackets, D forms with d. Residues, ends and D or L forms follow the SMILES beside them. ξ: configuration not given here. *: point of attachment. NMeAbu(3,3-F2-piperidino) = CN[C@@H](CCN1CCCC(F)(F)C1)C(=O)O; NMeAbu(4-morpholino) = CN[C@@H](CCN1CCOCC1)C(=O)O; NMeAla(4-thiazolyl) = CN[C@@H](Cc1cscn1)C(=O)O; NMePhe(3-Cl) = CN[C@@H](Cc1cccc(Cl)c1)C(=O)O; NMePhe(4-Cl) = CN[C@@H](Cc1ccc(Cl)cc1)C(=O)O; X17 = O=C([C@H](CCCC(O)C(F)(F)F)N[*:1])[*:2]; hPhe(3-Cl) = N[C@@H](CCc1cccc(Cl)c1)C(=O)O; NMeW = CN[C@@H](Cc1c[nH]c2ccccc12)C(=O)O; hhPhe = N[C@@H](CCCc1ccccc1)C(=O)O; X3 = O=C([C@H](CCCCO)N[*:1])[*:2]; NMeF = CN[C@@H](Cc1ccccc1)C(=O)O; NMeGABA = CN(CCCC(=O)[*:2])[*:1]; NMeD = CN[C@@H](CC(=O)O)C(=O)O; NMeL = CN[C@@H](CC(C)C)C(=O)O; ξNMeF = CNC(Cc1ccccc1)C(=O)O; NMeV = CN[C@H](C(=O)O)C(C)C; NMeA = CN[C@@H](C)C(=O)O; Piperidide = C1CCN(*)CC1; Me2NCH2CH2 = CN(C)CC*; NBuGly = CCCCNCC(=O)O; Sar = CNCC(=O)O; tBu = CC(C)(C)*

Test: Caco-2 membrane permeability, improved method as used in the following Examples (96-well, 20 to 24 h preincubation)
Type: in vitro ADME
Settings: for Papp A→B at 180 min: human
In short: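 Papp (cm/sec) was derived from LC/MS of basal samples collected 180 min after apical dosing in FaSSIF/HBSS pH 6.0 with 1% DMSO, against a basal HBSS pH 7.4 receiver containing 4% BSA. Three-week Caco-2 cultures were first preincubated with compound in DMEM+FaSSIF at 37 °C for 20–24 h.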

SMILES	Papp A→B at 180 min (Caco-2, Caco-2 (cm/sec)) [×10⁻⁶ cm/s]	Papp A→B at 180 min (Caco-2, Caco-2) [×10⁻⁶ cm/s]	other results
CC(C)C[C@H]1C(=O)N[C@@H](CCCc2ccccc2)C(=O)N(C)[C@@H](Cc2ccccc2)C(=O)N(C)[C@@H](C(C)C)C(=O)N[C@H](C(=O)N2CCCCC2)CC(=O)N[C@H](C)C(=O)N(C)C(Cc2ccccc2)C(=O)N[C@@H](C(C)C)C(=O)N(C)[C@@H](CC(C)C)C(=O)N[C@@H]([C@@H](C)O)C(=O)N(C)CC(=O)N1C (stereo partly drawn) [pd193] ([dA][ξNMeF]V[NMeL]T[Sar][NMeL][hhPhe][NMeF][NMeV]D-Piperidide; lactam N-11)	1		
CC[C@H](C)[C@@H]1NC(=O)[C@H](CC(C)C)N(C)C(=O)[C@H](CCCC(O)C(F)(F)F)NC(=O)[C@H](Cc2ccccc2)N(C)C(=O)CN(C)C(=O)C[C@@H](C(=O)N2CCCCC2)NC(=O)[C@H](CC(C)C)N(C)C(=O)[C@H](COC(C)(C)C)NC(=O)[C@H](CC(C)C)N(C)C(=O)[C@H](Cc2ccccc2)N(C)C(=O)CN(C)C1=O (stereo partly drawn) [pd502] ([Sar][NMeF][X17][NMeL]I[Sar][NMeF][NMeL]S(tBu)[NMeL]D-Piperidide; lactam N-11)			Papp A→B (Caco-2, Caco-2): 1 ×10⁻⁶ cm/s
CC(C)C[C@@H]1NC(=O)[C@H](Cc2ccccc2)N(C)C(=O)[C@H]([C@@H](C)O)NC(=O)[C@H](Cc2ccccc2)N(C)C(=O)CN(C)C(=O)[C@H](Cc2ccccc2)NC(=O)[C@H](CC(C)C)N(C)C(=O)[C@H](CC(C)C)NC(=O)[C@H](Cc2ccccc2)N(C)C(=O)[C@H](C)N(C)C(=O)C[C@@H](C(=O)N2CCCCC2)NC1=O [pd231] ([NMeA][NMeF]L[NMeL]F[Sar][NMeF]T[NMeF]LD-Piperidide; lactam N-11)	0.21		
CC(C)C[C@@H]1NC(=O)[C@H](Cc2ccccc2)N(C)C(=O)[C@H](COC(C)(C)C)NC(=O)[C@H](Cc2ccccc2)N(C)C(=O)[C@H](C)N(C)C(=O)[C@H](CC(C)C)N(C)C(=O)[C@@H]2CCCN2C(=O)N[C@@H](C(=O)N2CCCCC2)NC(=O)[C@H](Cc2ccccc2)N(C)C(=O)[C@H]([C@@H](C)O)NC(=O)[C@H](CC(C)C)N(C)C1=O [pd214]	1.2		
CC(C)C[C@H]1C(=O)N[C@@H](CCc2cccc(Cl)c2)C(=O)N(C)[C@@H](CC(C)C)C(=O)N[C@@H]([C@@H](C)O)C(=O)N(C)CC(=O)N(C)[C@@H](Cc2ccccc2)C(=O)N(C)[C@@H](CC(C)C)C(=O)N[C@@H](COC(C)(C)C)C(=O)N(C)[C@@H](C(C)C)C(=O)N[C@H](C(=O)N2CCCCC2)CC(=O)N(C)CC(=O)N1C [pd357] ([Sar][NMeL][hPhe(3-Cl)][NMeL]T[Sar][NMeF][NMeL]S(tBu)[NMeV]D-Piperidide; lactam N-11)		1.3	
CCCCN1CC(=O)N(C)[C@@H](C(C)C)C(=O)N[C@@H](CC(C)C)C(=O)N(C)[C@@H](Cc2ccccc2)C(=O)N(C)[C@@H](CCN2CCCC(F)(F)C2)C(=O)N[C@H](C(=O)N2CCCCC2)CC(=O)N[C@H](C)C(=O)N(C)[C@@H](Cc2ccccc2)C(=O)N[C@@H](CC(C)C)C(=O)N(C)[C@@H](CC(C)C)C(=O)N[C@@H]([C@@H](C)O)C1=O [pd388] ([dA][NMeF]L[NMeL]T[NBuGly][NMeV]L[NMeF][NMeAbu(3,3-F2-piperidino)]D-Piperidide; lactam N-11)		1.8	
CC(C)C[C@H]1C(=O)N[C@@H](COC(C)(C)C)C(=O)N(C)[C@@H](Cc2ccccc2)C(=O)N(C)[C@@H](CC(C)C)C(=O)N(C)[C@H](C(=O)N2CCCCC2)CC(=O)N[C@@H](C)C(=O)N(C)[C@@H](Cc2cccc(Cl)c2)C(=O)N[C@@H](C(C)C)C(=O)N(C)[C@@H](C(C)C)C(=O)N[C@@H]([C@@H](C)O)C(=O)N(C)CC(=O)N1C [pd160] (A[NMePhe(3-Cl)]V[NMeV]T[Sar][NMeL]S(tBu)[NMeF][NMeL][NMeD]-Piperidide; lactam N-11)	3.4		
CC(C)C[C@@H]1NC(=O)[C@H](C)N(C)C(=O)C[C@@H](C(=O)N2CCCCC2)NC(=O)[C@H](CC(C)C)N(C)C(=O)CN(C)C(=O)[C@H]([C@@H](C)O)NC(=O)[C@H](CC(C)C)N(C)C(=O)[C@H](Cc2ccc(Cl)cc2)N(C)C(=O)[C@H](C)NC(=O)[C@H](Cc2ccccc2)N(C)C(=O)[C@H](CC(C)C)N(C)C1=O [pd173] ([NMeA]L[NMeL][NMeF]A[NMePhe(4-Cl)][NMeL]T[Sar][NMeL]D-Piperidide; lactam N-11)	1.6		
CCCCN1CC(=O)N(C)[C@@H](CC(C)C)C(=O)N[C@@H](COC(C)(C)C)C(=O)N(C)[C@@H](Cc2ccccc2)C(=O)N(C)[C@@H](C(C)C)C(=O)N[C@H](C(=O)N2CCCCC2)CC(=O)N[C@H](CC(C)C)C(=O)N(C)[C@@H](Cc2ccccc2)C(=O)N[C@@H](CC(C)C)C(=O)N(C)[C@@H](CCN2CCOCC2)C(=O)N[C@@H]([C@@H](C)O)C1=O [pd452] ([dL][NMeF]L[NMeAbu(4-morpholino)]T[NBuGly][NMeL]S(tBu)[NMeF][NMeV]D-Piperidide; lactam N-11)		1.3	
CCCCN1CC(=O)N(C)[C@@H](C(C)C)C(=O)N[C@H](C(=O)N2CCCCC2)CC(=O)N(C)[C@@H](C)C(=O)N[C@@H](COCCN(C)C)C(=O)N(C)[C@@H](CC(C)C)C(=O)N(C)[C@@H](Cc2ccccc2)C(=O)N[C@@H](CC(C)C)C(=O)N(C)[C@@H](Cc2ccccc2)C(=O)N(C)[C@@H](CC(C)C)C(=O)N[C@@H]([C@@H](C)O)C1=O [pd56] ([NMeA]S(Me2NCH2CH2)[NMeL][NMeF]L[NMeF][NMeL]T[NBuGly][NMeV]D-Piperidide; lactam N-11)		0.12	
CC(C)C[C@H]1C(=O)N(C)[C@@H](Cc2c[nH]c3ccccc23)C(=O)N(C)[C@@H](Cc2ccccc2)C(=O)N[C@@H]([C@@H](C)O)C(=O)N(C)[C@@H](C)C(=O)N(C)[C@@H](CC(C)C)C(=O)N[C@H](C(=O)N2CCCCC2)CC(=O)N(C)[C@@H](C)C(=O)N(C)[C@@H](CC(C)C)C(=O)N(C)[C@@H](CC(C)C)C(=O)N[C@@H](C)C(=O)N1C [pd104] ([NMeA][NMeL][NMeL]A[NMeL][NMeW][NMeF]T[NMeA][NMeL]D-Piperidide; lactam N-11)	0.025		
CC(C)C[C@H]1C(=O)N[C@@H](C(C)C)C(=O)N(C)[C@@H](Cc2ccccc2)C(=O)N(C)[C@@H](Cc2ccccc2)C(=O)N[C@@H](COC(C)(C)C)C(=O)N(C)[C@@H](CC(C)C)C(=O)N[C@@H](CCCCO)C(=O)N(C)[C@@H](CC(C)C)C(=O)N(C)[C@@H](CC(C)C)C(=O)N[C@H](C(=O)N2CCCCC2)CC(=O)N(C)CCCC(=O)N1C [pd446] ([NMeGABA][NMeL]V[NMeF][NMeF]S(tBu)[NMeL][X3][NMeL][NMeL]D-Piperidide; lactam N-11)			Papp A→B at 180 min (Papp, Caco-2 membrane permeability, improved method, read-out: Caco-2): 1.3 ×10⁻⁶ cm/s
CC(C)C[C@@H]1NC(=O)[C@H](C)N(C)C(=O)C[C@@H](C(=O)N2CCCCC2)NC(=O)[C@H](CC(C)C)N(C)C(=O)CN(C)C(=O)[C@H]([C@@H](C)O)NC(=O)[C@H](Cc2cscn2)N(C)C(=O)[C@H](Cc2ccccc2)N(C)C(=O)[C@H](Cc2ccccc2)NC(=O)[C@H](Cc2ccccc2)NC(=O)[C@H](CC(C)C)N(C)C1=O [pd236] ([NMeA]L[NMeL]FF[NMeF][NMeAla(4-thiazolyl)]T[Sar][NMeL]D-Piperidide; lactam N-11)			Papp A→B at 180 min (Caco-2, Papp, Table 24, sequences where ARC = 4, read-out: Caco-2): 0.096 ×10⁻⁶ cm/s
